Test results from US7183415B2, “Quinoline compound” (Takeda Pharmaceutical Company Limited, priority 2001, dated 2007).

melting point	SMILES
243 °C	CNC(=O)CC1CCN(Cc2cnc3cc(NC(=O)c4ccc(-c5ccc(F)cc5)cc4)c(C)cc3c2)CC1 [Example 269, 4′-fluoro-N-[6-methyl-3-({4-[2-(methylamino)-2-oxoethyl]-1-piperidinyl}methyl)-7-quinolinyl][1,1′-biphenyl]-4-carboxamide]
236 °C (dec.)	COc1cc2cc(CN3CCCCC3)cnc2cc1NC(=O)c1ccc(-c2ccc(Cl)cc2)cc1 [Example 24, 4′-chloro-N-[6-methoxy-3-(1-piperidinylmethyl)-7-quinolinyl][1,1′-biphenyl]-4-carboxamide]
209 °C	O=C(Nc1cc2ncc(CN3CCCC3)cc2cc1Cl)c1ccc(-c2cc3ccccc3o2)cc1 [Example 68, 4-(1-benzofuran-2-yl)-N-[6-chloro-3-(1-pyrrolidinylmethyl)-7-quinolinyl]benzamide]
249 to 251 °C	O=C(Nc1ccc2cc(CN3CCCC3)cnc2c1)N1CCC(c2ccc(Cl)cc2)CC1 [Example 16, 4-(4-chlorophenyl)-N-[3-(1-pyrrolidinylmethyl)-7-quinolinyl]-1-piperidine carboxamide]
172 to 173 °C	Cc1c(NC(=O)c2ccc(-c3ccc(F)cc3F)cc2F)ccc2cc(CN3CCCC3)cnc12 [Example 139, 2′,3,4′-trifluoro-N-[8-methyl-3-(1-pyrrolidinylmethyl)-7-quinolinyl][1,1′-biphenyl]-4-carboxamide]
191 to 195 °C	O=C(Nc1ccc2cc(CN3CCC(CO)CC3)cnc2c1)c1ccc(-c2ccc(F)cc2)cc1 [Example 45, 4′-fluoro-N-(3-{[4-(hydroxymethyl)-1-piperidinyl]methyl}-7-quinolinyl)[1,1′-biphenyl]-4-carboxamide]
167 to 170 °C	Cc1cc2cc(CN3CCCC3)cnc2cc1NC(=O)c1ccc(-c2ccccc2)c(F)c1 [Example 232, 2-fluoro-N-[6-methyl-3-(1-pyrrolidinylmethyl)-7-quinolinyl][1,1′-biphenyl]-4-carboxamide]
178 to 179 °C	CCc1ccc(-c2ccc(C(=O)Nc3ccc4cc(CN5CCCC5)cnc4c3C)c(F)c2)cc1 [Example 140, 4′-ethyl-3-fluoro-N-[8-methyl-3-(1-pyrrolidinylmethyl)-7-quinolinyl][1,1′-biphenyl]-4-carboxamide]
181 to 185 °C	Cc1cc2cc(CN3CCCC3)cnc2cc1NC(=O)c1ccc(-c2ccc(Cl)cc2)c(F)c1 [Example 235, 4′-chloro-2-fluoro-N-[6-methyl-3-(1-pyrrolidinylmethyl)-7-quinolinyl][1,1′-biphenyl]-4-carboxamide]
129 to 130 °C	Cc1c(NC(=O)c2ccc(-c3ccccc3)c(F)c2)ccc2cc(CN3CCCCCC3)cnc12 (hydrate or solvate) [Example 188, N-[3-(1-azepanylmethyl)-8-methyl-7-quinolinyl]-2-fluoro[1,1′-biphenyl]-4-carboxamide]
216 °C	Cc1cc2cc(CN3CCC(CC(=O)N4CCCCC4)CC3)cnc2cc1NC(=O)c1ccc(-c2ccc(F)cc2)cc1 [Example 265, 4′-fluoro-N-[6-methyl-3-({4-[2-oxo-2-(1-piperidinyl)ethyl]-1-piperidinyl}methyl)-7-quinolinyl][1,1′-biphenyl]-4-carboxamide]
210 to 213 °C	Cc1ccc(-c2ccc(C(=O)Nc3ccc4cc(CN5CCCC5)cnc4c3F)cc2)cc1 [Example 74, N-[8-fluoro-3-(1-pyrrolidinylmethyl)-7-quinolinyl]-4′-methyl[1,1′-biphenyl]-4-carboxamide]
194 °C	Cc1cc2cc(CN3CCC(CCCC(=O)N(C)C)CC3)cnc2cc1NC(=O)c1ccc(-c2ccc(F)cc2)cc1 [Example 262, N-[3-({4-[4-(dimethylamino)-4-oxobutyl]-1-piperidinyl}methyl)-6-methyl-7-quinolinyl]-4′-fluoro[1,1′-biphenyl]-4-carboxamide]
223 to 227 °C	Cc1cc2cc(CN3CCC(CCC(N)=O)CC3)cnc2cc1NC(=O)c1ccc(-c2ccc(F)cc2)cc1 [Example 253, N-(3-{[4-(3-amino-3-oxopropyl)-1-piperidinyl]methyl}-6-methyl-7-quinolinyl)-4′-fluoro[1,1′-biphenyl]-4-carboxamide]
184 to 186 °C	COc1ccc(-c2ccc(C(=O)Nc3cc4ncc(CN5CCCC5)cc4cc3F)cc2)cc1 [Example 53, N-[6-fluoro-3-(1-pyrrolidinylmethyl)-7-quinolinyl]-4′-methoxy[1,1′-biphenyl]-4-carboxamide]
170 °C	Cc1cc2cc(CN3CCCCCC3)cnc2cc1NC(=O)c1ccc(-c2ccc(F)cc2)cc1F [Example 244, N-[3-(1-azepanylmethyl)-6-methyl-7-quinolinyl]-3,4′-difluoro[1,1′-biphenyl]-4-carboxamide]
195 to 198 °C	Cc1cc2cc(CN3CCCC3)cnc2cc1NC(=O)c1ccc(-c2ccc(Cl)cc2)cc1F [Example 230, 4′-chloro-3-fluoro-N-[6-methyl-3-(1-pyrrolidinylmethyl)-7-quinolinyl][1,1′-biphenyl]-4-carboxamide]
165 to 167 °C	COc1ccc(-c2ccc(C(=O)Nc3ccc4cc(CN5CCCCCC5)cnc4c3C)cc2)cc1 [Example 179, N-[3-(1-azepanylmethyl)-8-methyl-7-quinolinyl]-4′-methoxy[1,1′-biphenyl]-4-carboxamide]

melting point	SMILES
179 °C	Cc1cc2cc(CN3CCC(CCCC(=O)N4CCCCC4)CC3)cnc2cc1NC(=O)c1ccc(-c2ccc(F)cc2)cc1 [Example 259, 4′-fluoro-N-[6-methyl-3-({4-[4-oxo-4-(1-piperidinyl)butyl]-1-piperidinyl}methyl)-7-quinolinyl][1,1′-biphenyl]-4-carboxamide]
212 to 213 °C	Cc1c(NC(=O)c2ccc(-c3ccc(Cl)s3)cc2)ccc2cc(CN3CCCCC3)cnc12 [Example 167, 4-(5-chloro-2-thienyl)-N-[8-methyl-3-(1-piperidinylmethyl)-7-quinolinyl]benzamide]
247 °C (dec.)	O=C(Nc1ccc2cc(CN3CCCCCC3)cnc2c1)N1CCC(c2ccc(Cl)cc2)CC1 [Example 34, N-[3-(1-azepanylmethyl)-7-quinolinyl]-4-(4-chlorophenyl)-1-piperidine carboxamide]
239 to 241 °C	O=C(Nc1ccc2cc(CN3CCCC3)cnc2c1)N1CCC(c2ccc(F)cc2)CC1 [Example 14, 4-(4-fluorophenyl)-N-[3-(1-pyrrolidinylmethyl)-7-quinolinyl]-1-piperidine carboxamide]
208 to 210 °C	O=C(Nc1ccc2cc(CN3CCCC3)cnc2c1)c1ccc(-c2ccccc2)nc1 [Example 7, 6-phenyl-N-[3-(1-pyrrolidinylmethyl)-7-quinolinyl]nicotinamide]
181 to 183 °C	Cc1c(NC(=O)c2ccc(-c3ccc(Cl)cc3)cc2F)ccc2cc(CN3CCCC3)cnc12 [Example 146, 4′-chloro-3-fluoro-N-[8-methyl-3-(1-pyrrolidinylmethyl)-7-quinolinyl][1,1′-biphenyl]-4-carboxamide]
283 °C	Cc1cc2cc(CN3CCCC3)cnc2cc1NC(=O)c1ccc(-c2ccccc2Cl)cc1.Cl
198 to 200 °C	O=C(Nc1cc2ncc(CN3CCCC3)cc2cc1F)c1ccc(-c2ccc(F)cc2)cc1 [Example 50, 4′-fluoro-N-[6-fluoro-3-(1-pyrrolidinylmethyl)-7-quinolinyl][1,1′-biphenyl]-4-carboxamide]
180 to 183 °C	Cc1cc2cc(CN3CCCC3)cnc2cc1NC(=O)c1ccc(-c2ccccc2)cc1F [Example 226, 3-fluoro-N-[6-methyl-3-(1-pyrrolidinylmethyl)-7-quinolinyl][1,1′-biphenyl]-4-carboxamide]
158 to 160 °C	Cc1cc2cc(CN3CCCC3)cnc2cc1NC(=O)c1ccc(-c2ccc(F)cc2F)cc1 [Example 214, 2′,4′-difluoro-N-[6-methyl-3-(1-pyrrolidinylmethyl)-7-quinolinyl][1,1′-biphenyl]-4-carboxamide]
189 to 191 °C	Cc1cc2cc(CN3CCC(CCC(=O)N4CCCCC4)CC3)cnc2cc1NC(=O)c1ccc(-c2ccc(F)cc2)cc1 [Example 258, 4′-fluoro-N-[6-methyl-3-({4-[3-oxo-3-(1-piperidinyl)propyl]-1-piperidinyl}methyl)-7-quinolinyl][1,1′-biphenyl]-4-carboxamide]
200 to 203 °C	Cc1cc(-c2ccc(F)cc2)ccc1C(=O)Nc1ccc2cc(CN3CCCC3)cnc2c1C [Example 158, 4′-fluoro-3-methyl-N-[8-methyl-3-(1-pyrrolidinylmethyl)-7-quinolinyl][1,1′-biphenyl]-4-carboxamide]
244 to 246 °C	Cc1ccc(C2CCN(C(=O)Nc3ccc4cc(CN5CCCC5)cnc4c3)CC2)cc1 [Example 15, 4-(4-methylphenyl)-N-[3-(1-pyrrolidinylmethyl)-7-quinolinyl]-1-piperidine carboxamide]
176 to 177 °C	Cc1c(NC(=O)c2ccc(-c3ccc4c(c3)CCO4)cc2)ccc2cc(CN3CCCC3)cnc12 [Example 113, 4-(2,3-dihydro-1-benzofuran-5-yl)-N-[8-methyl-3-(1-pyrrolidinylmethyl)-7-quinolinyl]benzamide]
176 to 178 °C	Cc1c(NC(=O)c2ccc(-c3ccc(F)cc3)c(F)c2)ccc2cc(CN3CCCC3)cnc12 [Example 153, 2,4′-difluoro-N-[8-methyl-3-(1-pyrrolidinylmethyl)-7-quinolinyl][1,1′-biphenyl]-4-carboxamide]
188 to 190 °C	Cc1c(NC(=O)c2ccc(-c3ccc(F)cc3)cc2)ccc2cc(CN3CCCCC3)cnc12 [Example 166, 4′-fluoro-N-[8-methyl-3-(1-piperidinylmethyl)-7-quinolinyl][1,1′-biphenyl]-4-carboxamide]
216 to 219 °C	Cc1cc2cc(CN3CCCC3)cnc2cc1NC(=O)c1ccc(-c2ccc(C(F)(F)F)cc2)cc1 [Example 215, N-[6-methyl-3-(1-pyrrolidinylmethyl)-7-quinolinyl]-4′-(trifluoromethyl)[1,1′-biphenyl]-4-carboxamide]
151 °C	Cc1cc2cc(CN3CCCCCC3)cnc2cc1NC(=O)c1ccc(-c2ccccc2)cc1F [Example 246, N-[3-(1-azepanylmethyl)-6-methyl-7-quinolinyl]-3-fluoro[1,1′-biphenyl]-4-carboxamide]
